Results from US7049069B2, “Detecting and treating reproductive tract disorders” (University of Florida, priority 2001, dated 2006).

Key:
Type in all cases: cell-based, human
[1] = test system: TNFα receptor type I expression in stromal cells; assay: Effect of IL-13 and IL-15 on TNFα receptor type I expression in stromal cells
Description: (§1) Cells. Uterine tissue was collected and endometrial stromal cells and their culture conditions were isolated as described previously. Tang et al., Endocrinology 135:450, 1994. The isolated glandular epithelial and stromal cells were grown as monolayers in DMEM-Ham's F-12 (1:1, v/v) supplemented with 10% fetal bovine serum (FBS). Their purity and homogeneity were determined immunocytochemically by the use of monoclonal antibodies to human desmin, smooth muscle α-actin, cytokeratin 19 and vimentin.
(§2) To determine whether IL-13 and IL-15 alter the expression of tumor necrosis factor alpha receptor, the stromal and epitheleal cells (isolated as described in Example3) were cultured, made quiescent, and then treated with IL-13 and IL-15 at appropriate concentration added to medium containing 2% cFBS. After specific time intervals the culture condition media were collected and assay for TNF-α receptor type I as previously described (Faber et al., Obstet Gynecol 98:668–673, 2001; Chegini et al., J Soc Gynecol Invest 6. 154–157, 1999) using ELISA and comparison to known concentrations of standard (R & D system).

[2] = test system: TNFα receptor type I expression in epithelial cells; assay: Effect of IL-13 and IL-15 on TNFα receptor type I expression in epithelial cells
Description: as §1, §2

[3] = test system: IL-15 expression in endometrial epithelial cells; assay: Effect of ovarian steroids on IL-15 expression in endometrial epithelial cells (quantitative RT-PCR, ELISA); conditions: for IL-15 expression, mRNA and protein level (summary statement): endometrial epithelial cells; for IL-15 expression: epithelial cells, various time points
Description: (§3) Cells. Uterine tissue was collected and endometrial stromal cells and their culture conditions were isolated as described previously. Tang et al., Endocrinology 135:450, 1994. The isolated glandular epithelial and stromal cells were grown as monolayers in DMEM-Ham's F-12 (1:1, v/v) supplemented with 10% fetal bovine serum (FBS). Their purity and homogeneity were determined immunocytochemically by the use of monoclonal antibodies to human desmin, smooth muscle α-actin, cytokeratin 19 and vimentin. Ovarian Steroids. To determine the effect of ovarian steroids regulate IL-13 and IL-15 expression in endometrial epithelial and stromal cells, cells were subcultured in 6-well dishes at an approximate density of at 10^6 cells/well, and incubated with phenol-free media containing 10% charcoal-stripped FBS for 48 hrs. The cells were made quiescent under a serum-free condition for 24 hrs, and then treated with E2 (17 β estradiol), MPA (medroxyprogesterone acetate) or E2+MPA either alone or in appropriate combinations, added to phenol-free medium containing 2% charcoal-stripped FBS (cFBS) (Hyclone, Logan, Utah). The level of IL-13 and IL-15 mRNA and protein was determined as described above after appropratie time intervals using quantitative RT-PCR and ELISA.

[4] = test system: IL-13 expression in endometrial epithelial cells; assay: Effect of ovarian steroids on IL-13 expression in endometrial epithelial cells (quantitative RT-PCR, ELISA); conditions: for IL-13 expression, mRNA and protein level (summary statement): endometrial epithelial cells; for IL-13 expression compared to control cells: epithelial cells
Description: as §3

[5] = test system: endometrial epithelial cells; assay: 3H-thymidine incorporation and cell proliferation (MTT) assay, epithelial cells
Description: as §1
(§4) ^3H-Thymidine Incorporation and Cell Proliferation Assay. Endometrial epithelial and stromal cells were cultured either in 24- or 96-well dishes at approximate density of 2.5×10^5 and 2.5×10^4 cell/well, respectively, in the presence of 10% FBS for 48 h, they were then made quiescent in serum-free condition for 48 h as previously described. Tang et al., supra. The quiescent cells were incubated either in serum-free, or 2% FBS supplemented media, in the presence of appropriate concentrations of IL-13 and/or IL-15 and 2 μCi/ml ^3H-thymidine for 48 h. The rate of incorporated ^3H-thymidine determined as previously described. Tang et al., supra. Cell proliferation assays were preformed by seeding epithelial and stromal cells in 96-well microplates or 24 well dishes, respectively, as described above and cultured in the presence of appropriate concentrations of IL-13 and IL-15 in the presence or absence of 2% FBS. After 48 h the cells were washed and incubated with a dye solution composed of 3-(4,5-dimethylthiazol-2-yl)-2,5-diphenyltetrazolium bromide (MTT) for 4 h at 37° C., solubilized using Promega Cell-Titer assay, and the optical density was measured using Thermomax microplate reader (Molecular Devices) at 570 nm as previously described (Tang et al., supra).

[6] = test system: endometrial stromal cells; assay: 3H-thymidine incorporation and cell proliferation (MTT) assay, stromal cells
Description: as §1, §4

[7] = test system: IL-13 expression in endometrial stromal cells; assay: Effect of ovarian steroids on IL-13 expression in endometrial stromal cells (quantitative RT-PCR, ELISA); conditions: for IL-13 expression, mRNA and protein level (summary statement): endometrial stromal cells; for IL-13 expression compared to control cells: stromal cells, various time points (e.g. 4, 6, 24 and 36 h after steroid addition)
Description: as §3

[8] = test system: IL-15 expression in endometrial stromal cells; assay: Effect of ovarian steroids on IL-15 expression in endometrial stromal cells (quantitative RT-PCR, ELISA); conditions: for IL-15 expression, mRNA and protein level (summary statement): endometrial stromal cells; for IL-15 expression: stromal cells, various time points
Description: as §3

Compound	TNFα receptor type I protein expression ([1]; 24 and 36 h)	TNFα receptor type I mRNA production ([2]; 2, 4 and 6 h)	TNFα receptor type I protein expression ([2]; 36 h)	IL-15 expression, mRNA and protein level (summary statement) [3]	IL-15 expression [3]	IL-13 expression, mRNA and protein level (summary statement) [4]	IL-13 expression compared to control cells ([4]; 24 and 36 h)	IL-13 expression compared to control cells ([4]; 6 h)	3H-thymidine incorporation compared to control cells [5]	cell proliferation compared to control cells [5]	3H-thymidine incorporation compared to control cells [6]	cell proliferation compared to control cells [6]	IL-13 expression, mRNA and protein level (summary statement) [7]	IL-13 expression compared to control cells [7]	IL-15 expression, mRNA and protein level (summary statement) [8]	IL-15 expression [8]	TNFα receptor type I mRNA expression compared to control cells ([1]; 6 h)	TNFα receptor type I protein expression ([1]; 36 h)
IL-13: cytokine interleukin-13 added to stromal and epithelial cell cultures	statistically significant increase	increased	statistically significant increase	–	–	–	–	–	–	–	–	–	–	–	–	–	–	–
CC(=O)O[C@]1(C(C)=O)CC[C@H]2[C@@H]3C[C@H](C)C4=CC(=O)CC[C@]4(C)[C@H]3CC[C@@]21C [MPA, medroxyprogesterone acetate]	–	–	–	modulate	statistically significant increase	modulate	statistically significant increase	statistically significant increase	modulated	modulated	modulated	modulated	modulate	statistically significant increase	modulate	statistically significant increase	–	–
C[C@]12CC[C@@H]3c4ccc(O)cc4CC[C@H]3[C@@H]1CC[C@@H]2O [E2, 17 β estradiol]	–	–	–	modulate	statistically significant increase	modulate	statistically significant increase	–	modulated	modulated	modulated	modulated	modulate	statistically significant increase	modulate	statistically significant increase	–	–
IL-15: cytokine interleukin-15 added to stromal and epithelial cell cultures	–	–	–	–	–	–	–	–	–	–	–	–	–	–	–	–	marked increase	statistically significant increase
